Experimental data as given in patent US11186572B2, “Bacterial glutaminyl cyclases and inhibitors thereof for use in the treatment of periodontitis” (Fraunhofer-Gesellschaft zur Forderung der Angewandten …, priority 2016, dated 2021).
Where two headings read alike, the source gives them in different places.

Target: T1, PgQC (Porphyromonas gingivalis, UniProt Q7MT37)
T1 construct: Ki; RA (average residual QC activity of PgQC); other: c = 1 μM; other: c = 1.5 μM; other: c = 10 μM; other: c = 100 μM; other: c = 12 μM; RA; fused on or other part: N-terminal His tag from pET28a(+), cleaved off by thrombin before the enzymatic characterisation
Assay: biochemical
Parameters: species or system P. gingivalis
Details: for Ki: inhibition of PgQC, H-Gln-AMC, 50 mM Tris-HCl, 50 mM NaCl pH 8.0, 30° C.
Experimental: The assay consists of varying concentration of the fluorogenic substrate and 0.5 U pyroglutaminyl aminopeptidase in 50 mM Tris-HCl, 50 mM NaCl at pH 8.0. After 10 minute incubation time at 30° C. reaction was initiated by addition of bacQC to a final volume of 125 μl reaction mixture. […] All determinations were carried out in 96 well microtiter plates (Fisher Scientific) at 30° C. using the FluoStar Optima (BMG Labtech).
For inhibitor testing, the sample composition was the same as described above, except for the addition of the putative inhibitory compound. […] (∘) represents reaction without inhibitor. Determinations were carried out in 50 mM Tris-HCl, 50 mM NaCl pH 8.0 and 1% (v/v) DMSO at 30° C.
RA refers to the average residual QC activity of PgQC measured in the presence of a concentration c of the respective compound. Ki refers to the average Ki values measured as described above, and Std(Ki) refers to the standard deviation of Ki.

[1] = read-out: RA (average residual QC activity of PgQC)

Q: How did the Ki (Ki (average)) turn out when `COC(=O)/C=C/CN1CCc2[nH]cnc2C1` [MWT-S-00138, Methyl (E)-4-(3,4,6,7-tetrahydroimidazo[4,5-c]pyridin-5-yl)but-2-enoate] was run?
A: 3000 nM

Q: What about the remaining activity at 20 µM [1] of the same compound?
A: 21%

Q: For `c1ccc(CN2CCc3[nH]cnc3C2)cc1` [MWT-S-00139, 5-Benzyl-3,4,6,7-tetrahydroimidazo[4,5-c]pyridine], which Ki (read-out: Ki (average)) is on record?
A: 909 nM

Q: And the remaining activity at 8 µM [1]?
A: 18%

Q: How did the Ki (read-out: Ki (average)) turn out when `c1ccc(CCN2CCc3[nH]cnc3C2)cc1` [MWT-S-00145, 5-(2-Phenylethyl)-3,4,6,7-tetrahydroimidazo[4,5-c]pyridine] was run?
A: 6470 nM

Q: What about the remaining activity at 40 µM [1] of the same compound?
A: 21%

Q: Which Ki (read-out: Ki (average)) does the source give for `O=C(/C=C/c1ccccc1)N1CCc2[nH]cnc2C1` [MWT-S-00146, (E)-3-Phenyl-1-(3,4,6,7-tetrahydroimidazo[4,5-c]pyridin-5-yl)prop-2-en-1-one] here?
A: 1580 nM

Q: And the remaining activity at 15 µM [1]?
A: 18%

Q: What does the source list for `O=C(CCc1ccccc1)N1CCc2[nH]cnc2C1` [MWT-S-00147, 3-Phenyl-1-(3,4,6,7-tetrahydroimidazo[4,5-c]pyridin-5-yl)propan-1-one]?
A: Ki (read-out: Ki (average)): 1750 nM; remaining activity at 12 µM [1]: 22%

Q: What does the source list for `O=C(Cc1ccccc1)N1CCc2[nH]cnc2C1` [MWT-S-00148, 2-Phenyl-1-(3,4,6,7-tetrahydroimidazo[4,5-c]pyridin-5-yl)ethanone]?
A: Ki (read-out: Ki (average)): 1680 nM; remaining activity at 8 µM [1]: 29%

Q: With `O=C(c1ccccc1)N1CCc2[nH]cnc2C1` [MWT-S-00149, Phenyl(3,4,6,7-tetrahydroimidazo[4,5-c]pyridin-5-yl)methanone] as the compound, how does the Ki (read-out: Ki (average)) read?
A: 435 nM

Q: What about the remaining activity at 4 µM [1] of the same compound?
A: 20%

Q: For `O=C(c1ccc(F)cc1)N1CCc2[nH]cnc2C1` [MWT-S-00156, (4-Fluorophenyl)-(3,4,6,7-tetrahydroimidazo[4,5-c]pyridin-5-yl)methanone], which Ki (read-out: Ki (average)) is on record?
A: 879 nM

Q: And the remaining activity at 5 µM [1]?
A: 24%

Q: For `COc1ccc(C(=O)N2CCc3[nH]cnc3C2)cc1` [MWT-S-00157, (4-Methoxyphenyl)-(3,4,6,7-tetrahydroimidazo[4,5-c]pyridin-5-yl)methanone], which Ki (read-out: Ki (average)) is on record?
A: 833 nM

Q: What about the remaining activity at 5 µM [1] of the same compound?
A: 24%

Q: Which results are given for `COc1cccc(C(=O)N2CCc3[nH]cnc3C2)c1` [MWT-S-00158, (3-Methoxyphenyl)-(3,4,6,7-tetrahydroimidazo[4,5-c]pyridin-5-yl)methanone]?
A: Ki (read-out: Ki (average)): 335 nM; remaining activity at 2 µM [1]: 21%

Q: Which Ki (read-out: Ki (average)) does the source give for `O=C(c1ccc(Cl)c(Cl)c1)N1CCc2[nH]cnc2C1` [MWT-S-00159, (3,4-Dichlorophenyl)-(3,4,6,7-tetrahydroimidazo[4,5-c]pyridin-5-yl)methanone] here?
A: 257 nM

Q: And the remaining activity at 2 µM [1]?
A: 18%

Q: Which results are given for `O=C(c1ccc(Cl)cc1)N1CCc2[nH]cnc2C1` [MWT-S-00160, (4-Chlorophenyl)-(3,4,6,7-tetrahydroimidazo[4,5-c]pyridin-5-yl)methanone]?
A: Ki (read-out: Ki (average)): 681 nM; remaining activity at 5 µM [1]: 20%

Q: Which results are given for `c1ccc(CN2CCc3[nH]cnc3C23COC3)cc1` [MWT-S-00260, 5-Benzylspiro[6,7-dihydro-3H-imidazo[4,5-c]pyridine-4,3′-oxetane]]?
A: Ki (read-out: Ki (average)): 1760 nM; remaining activity at 10 µM [1]: 22%

Q: Which remaining activity at 20 µM [1] does the source give for `Fc1cc(CN2CCc3[nH]cnc3C2c2ccccc2)cc(F)c1F` (stereo not shown) [MWT-S-00261, 4-Phenyl-5-[(3,4,5-trifluorophenyl)methyl]-3,4,6,7-tetrahydroimidazo[4,5-c]pyridine] here?
A: 93%

Q: For `c1ccc(C2NCCc3[nH]cnc32)cc1` (stereo not shown) [MWT-S-00264], which remaining activity at 100 µM [1] is on record?
A: 92%

Q: With `CC1c2nc[nH]c2CCN1Cc1ccccc1` (stereo not shown) [MWT-S-00265, 5-Benzyl-4-methyl-3,4,6,7-tetrahydroimidazo[4,5-c]pyridine] as the compound, how does the Ki (read-out: Ki (average)) read?
A: 3080 nM

Q: And the remaining activity at 20 µM [1]?
A: 21%

Q: `Fc1cc(CN2CCc3[nH]cnc3C23COC3)cc(F)c1F` [MWT-S-00266, 5-[(3,4,5-Trifluorophenyl)methyl]spiro[6,7-dihydro-3H-imidazo[4,5-c]pyridine-4,3′-oxetane]] was tested. Which Ki (Ki (average)) did it give?
A: 556 nM

Q: And the remaining activity at 4 µM [1]?
A: 19%

Q: How did the Ki (Ki (average)) turn out when `CC1c2nc[nH]c2CCN1Cc1cc(F)c(F)c(F)c1` (stereo not shown) [MWT-S-00267, 4-Methyl-5-[(3,4,5-trifluorophenyl)methyl]-3,4,6,7-tetrahydro-imidazo[4,5-c]pyridine] was run?
A: 528 nM

Q: What about the remaining activity at 4 µM [1] of the same compound?
A: 20%
